For data set [1], the system named is Phelipanche aegyptiaca seeds. Nature of the data set: Germination-inducing activity on parasitic seeds. In kind it is in vivo. To be noted: for Fold lower potency than rac-GR24 (germination): compared with rac-GR24. The procedure: Seeds of Phelipanche aegyptiaca were collected from field-grown tomato in the West Galilee region of Israel. The seeds were stored in glass vials in the dark at room temperature until their use in germination tests. For the preparation of test solutions, the compound to be tested was weighed out very accurately, dissolved in acetone at 10^–2 M and then diluted with sterile distilled water to the desired concentrations. All solutions were prepared just before use. Seeds were surface-sterilized and preconditioned as described by [Bhattacharya et al. (2009)]. Briefly, after exposure for 5 min to 50% (v/v) aqueous solutions of commercial bleach (2% hypochlorite), seeds were rinsed with sterile distilled water. For preconditioning, seeds were placed on glass fibre filter discs using a sterile toothpick (approximately 50 seeds per disc); the glass fibre discs were placed on two filter paper discs, wetted with sterile distilled water, and incubated at 25 °C in the dark for 6 d. The preconditioned seeds were then allowed to dry completely in a laminar flow cabinet, after which they were treated with each compound at five different concentrations: 10^–5 M, 10^–6 M, 10^–7 M, 10^–8 M, and 10^–9 M. Their germination rate was evaluated under a stereomicroscope 7 d after the beginning of the treatment. For each concentration, at least 250 seeds were scored; synthetic SL rac-GR24 was included as a positive control across the same range of concentrations, while a solution of 0.001% acetone in sterile distilled water was included as a negative control. Seeds were scored as germinated if the radicle protruded through the seed coat 1 week after treatment. Germination values were normalized to those of rac-GR24 at 10^–7 M.
Fig. 3. Germination-inducing activity on Phelipanche aegyptiaca seeds of rac-1–9 and of strigol, ST23b, EGO10, and EDOT at different concentrations, compared to rac-GR24 0.1 μM as a positive control and to acetone as a negative control. […] The x-axis indicates the range of concentrations. Data are means (±SD) of n>250 seeds. Confidence intervals at 95% are used to express errors of the means. The data for rac-1–9 are indicated by ‘D-lactams’.

Data set [2] is described as follows: Chemical stability in aqueous solutions, degradation followed by HPLC. In kind it is physicochemical. The procedure: The compounds were first dissolved in methanol (30%) or acetonitrile (50%) and then diluted to the final concentrations with water. The time-course of degradation was monitored by HPLC using an Agilent Technologies HPLC chromatograph 1200 Series equipped with a photo-diode array (PDA) detector, a binary-gradient high-pressure pump, and an automatic sampler. The column used was a LiChroCART® 125-4 LiChrospher® 100 RP-18 (5 μm, Merck Millipore) maintained at 25 °C. The solvents were (A) water + 0.1% formic acid and (B) acetonitrile, and the flow rate was 0.8 ml min^–1. The initial mobile phase, 95% A / 5% B, was held for 3 min and then ramped linearly to 100% B at 23 min and held for 5 min before resetting to the original conditions. The sample injection volume was 10 μl. PDA detection was by absorbance in the 200–600-nm wavelength range. Peak detection was at the optimum wavelength (254 nm) and peak areas were used for quantification. Initial and subsequent measurements of peak area attributable to the tested compound were used to fit exponential half-life curves and to calculate first-order rate constants. Stability data allowed for calculation of the time in hours for half of the tested compound to be hydrolysed (t1/2).
Natural and synthetic SLs are rather sensitive to hydrolysis at pH 7 and are readily decomposed through the cleavage of the D-ring at pH 9.38 ([Vurro et al., 2016]). Therefore, differences in activity among SL analogues may be attributed to their instability in the aqueous medium. In order to address this point, the stability in aqueous solutions of the newly synthesized SL-D-lactams was tested, and compared to the (+)-GR24 standard ([Kannan and Zwanenburg, 2014]; [Halouzka et al., 2018]). Two different conditions were considered, a 30% solution of MeOH in water and a 1:1 solution of acetonitrile in water. As expected, stability in MeOH was highly compromised for all compounds, but to a greater extent for analogues showing both the Michael acceptor function (enol ether bridge) and an unprotected N in the D-lactam ring, as for rac-3, rac-4, rac-5, and rac-7 (Table 1): after a few hours 50% of the compounds were degraded. This was not surprising from a chemical point of view, as the functional group in SL-D-lactams is an aminal, which is more prone to hydrolysis than the acetal of the natural SL skeleton. […] For rac-5, the NH compound in the EGO10 family, the half-life dropped to 2 h.

The target in data set [3] is T1, AtD14 fused to firefly luciferase (D14::LUC) (Arabidopsis thaliana, UniProt Q9SQR3).
T1 construct: a pDONOR207 carrying the D14 promoter fused to the D14 CDS; expressed in transfected cells
T1 sequence (Q9SQR3 1-267): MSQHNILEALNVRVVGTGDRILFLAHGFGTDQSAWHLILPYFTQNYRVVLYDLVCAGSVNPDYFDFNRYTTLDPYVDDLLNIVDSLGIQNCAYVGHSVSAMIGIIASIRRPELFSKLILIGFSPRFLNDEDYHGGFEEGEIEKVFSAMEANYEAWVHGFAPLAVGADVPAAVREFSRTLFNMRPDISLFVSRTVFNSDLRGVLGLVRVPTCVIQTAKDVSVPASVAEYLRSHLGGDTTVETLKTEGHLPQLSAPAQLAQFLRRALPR
Nature of the data set: Luminometer-based competition assay between rac-9 and (+)-GR24. Conditions: rac-9 constant at 10 μM, (+)-GR24 0.01–100 μM. In kind it is in vivo. The procedure: The efficacy values in these samples in terms of luminescence quenching were compared with those of samples receiving (+)-GR24 alone (positive control). […] Luciferase competition test between rac-9 and (+)-GR24. (A) Efficacy values for (+)-GR24 across a range of concentrations, normalized to the value at 1 μM, which was set to 100%. (B) Efficacy values for (+)-GR24 across the same range of concentrations as in (A), but in the presence of rac-9 at 10 μM. Data are means (±SD) of n=5 replicates, where each replicate consisted of at least three pooled individual seedlings and readings.

[4] abbreviates: aqueous acetonitrile solution in HPLC vials, pH 6.7, 1:1 acetonitrile:water, 21 °C, pH 6.7, extrapolated from plots of peak area versus time, read-out: Half-life (t1/2, h) ACN:Water, 1:1 (converted).
Setting [5] is: aqueous methanol solution in HPLC vials, pH 6.7, 30% MeOH in water, 21 °C, pH 6.7, extrapolated from plots of peak area versus time, read-out: Half-life (t1/2, h) 30% MeOH (converted).
The mark [6] stands for this setting: aqueous solutions in HPLC vials, summary statement in the discussion, read-out: Half-life time (t1/2), solvent not specified / depending on the solvent.

Entries after “also recorded” stand apart in the source; their conditions may differ. Where two headings read alike, the source gives them in different places.

As for `CC1=C[C@H](O/C=C2/C(=O)O[C@@H]3c4ccccc4C[C@H]23)NC1=O` (racemic) [rac-3], the “Fold lower potency than rac-GR24 (germination)” value in data set [1] is ~ 100 fold. For the same compound, the “Concentration at which high germination activity was shown” value in data set [1] (high activity only at this concentration, germination normalized to rac-GR24 0.1 μM) is 10 µM. Moreover, the half-life at 200 μg ml^–1 in data set [2] (setting [4]) is 3.8 h; in data set [2] (setting [5]), approximately 3 h; in data set [2] (setting [6]), less than 4 h.
Take `CC1=C[C@H](O/C=C2/C(=O)O[C@H]3c4ccccc4C[C@@H]23)NC1=O` (racemic) [rac-4]: in data set [1] (1 μM), the “Germination efficiency at 1 μM” value is reported as “efficiency comparable to GR24”. The “Fold lower potency than rac-GR24 (germination)” value in data set [1] was ~ 10 fold. The “Concentration at which some germination activity could still be detected” value in data set [1] (tested 10^-9 to 10^-5 M) was determined as 1 µM. The half-life at 200 μg ml^–1 in data set [2] (setting [4]) is 4.4 h; in data set [2] (setting [5]), approximately 3 h.
On to `CC1=CC(C2Cc3c(n(C)c4ccccc34)C2=O)NC1=O` (racemic) [rac-9], for which the “Antagonism of (+)-GR24” value in data set [3] is listed as “no antagonistic behaviour; also recorded: did not possess antagonistic activity”. In data set [1] (10 μM), the “Germination activity at 10 μM” value is “inactive”. Besides, the half-life at 200 μg ml^–1 was 2900 h in data set [2] (setting [4]), 1100 h in data set [2] (setting [5]) and 1000 to 3000 h in data set [2] (setting [6]).
